Source: patent publication US20140314844A1, “ORAL COMPLEX FORMULATION COMPRISING OMEGA-3 FATTY ACID AND HMG-COA REDUCTASE INHIBITOR WITH IMPROVED STABILITY” (HANMI PHARM. CO., LTD, priority 2011, published 2014)

Experiment: Suitability test between capsule ingredients and rosuvastatin calcium (heating, HPLC of related material RRT 0.72)
Assay type: physicochemical
Settings: rosuvastatin 50 mg mixed with 100 mg capsule ingredient, heated at 100° C. for 2 hours, FIG. 1
Experimental: In order to evaluate interaction between the ingredients of a soft or hard capsule and statins, the following test was performed.
Specifically, gelatin (grade: 165 bloom, Geltech, Korea) which is a main ingredient of capsule; glycerol, propylene glycol and polyethylene glycol (PEG400), which are often used as a plasticizer; and sorbitol sorbitan solution (ROQUETTE, France, NF grade, containing solid content of 27.5 wt % of sorbitan and 34.4 wt % of sorbitol) were examined to evaluate the interaction with rosuvastatin calcium. In accordance with the ingredients described in Table 1, all ingredients were mixed, heated at 100° C. for 2 hours, and then evaluated by HPLC analysis.
HPLC analysis was performed using a stainless steel column of approximately 250 mm length, packed with 5 μm C18 or a similar column (Inertsil-ODS2, GL sciences) with a mobile phase of water:acetonitrile:1%(v/v) trifluoroacetic acid solution (62:37:1 (v/v)) at flow rate of 0.75 mL/min. The peak of related material as compared to the major peak of rosuvastatin, was analyzed quantitatively.

Q: Which “production of related material RRT 0.72” value does the source give for `CC(C)c1nc(N(C)S(C)(=O)=O)nc(-c2ccc(F)cc2)c1/C=C/[C@@H](O)C[C@@H](O)CC(=O)[O-].CC(C)c1nc(N(C)S(C)(=O)=O)nc(-c2ccc(F)cc2)c1/C=C/[C@@H](O)C[C@@H](O)CC(=O)[O-].[Ca+2]` [Ref. Ex. 1, rosuvastatin calcium] here?
A: excluding
